Laboratory results from ChEMBL document CHEMBL1151043, “The synthesis and antibacterial activity of 2-para-quarternary ammoniomethylphenyl-carbapenems” (1993).

Assays:
[1] = target: T1, Dipeptidase 1 (Sus scrofa) (UniProt P22412); assay: Susceptibility of compound towards porcine Dehydropeptidase-1 relative to imipenem as […] was calculated
T1 sequence (whole entry): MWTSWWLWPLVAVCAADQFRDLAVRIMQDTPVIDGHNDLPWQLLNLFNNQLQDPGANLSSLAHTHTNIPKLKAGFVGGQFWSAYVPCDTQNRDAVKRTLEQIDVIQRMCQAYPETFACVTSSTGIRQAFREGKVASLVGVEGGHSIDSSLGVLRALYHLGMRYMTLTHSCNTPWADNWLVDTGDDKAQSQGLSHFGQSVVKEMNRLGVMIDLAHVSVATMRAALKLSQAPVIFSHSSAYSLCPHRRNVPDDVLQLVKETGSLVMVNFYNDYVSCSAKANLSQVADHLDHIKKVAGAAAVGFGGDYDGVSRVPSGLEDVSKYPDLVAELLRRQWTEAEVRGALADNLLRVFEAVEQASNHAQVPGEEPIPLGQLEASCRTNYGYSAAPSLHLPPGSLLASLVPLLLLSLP

[2] = test system: Enterococcus; assay: In vitro antibacterial activity against Enterococcus relative to thienamycin; type: functional
[3] = test system: Escherichia coli; assay: In vitro antibacterial activity against Escherichia coli relative to thienamycin; type: functional
[4] = test system: Enterobacter; assay: In vitro antibacterial activity against Enterobacter relative to thienamycin; type: functional
[5] = test system: Klebsiella; assay: In vitro antibacterial activity against Klebsiella relative to thienamycin; type: functional
[6] = test system: Pseudomonas; assay: In vitro antibacterial activity against Pseudomonas relative to thienamycin; type: functional
[7] = test system: Proteus; assay: In vitro antibacterial activity against Proteus relative to thienamycin; type: functional, Proteus sp.
[8] = test system: Serratia; assay: In vitro antibacterial activity against Serratia relative to thienamycin; type: functional
[9] = test system: Staphylococcus aureus; assay: In vitro antibacterial activity against Staphylococcus aureus relative to thienamycin; type: functional

Row | Compound | Susceptibility [1] | Relative potency [2] | Relative potency [3] | Relative potency [4] | Relative potency [5] | Relative potency [6] | Relative potency [7] | Relative potency [8] | Relative potency [9]
1 | C[C@@H](O)[C@H]1C(=O)N2C(C(=O)O)=C(c3ccc(CN4CCN(C)CC4)cc3)C[C@H]12 | 0.12 | 5.7 | 3 | 4.9 | 1 | 0.04 | 9.2 | 7 | 0.4
2 | C[C@@H](O)[C@H]1C(=O)N2C(C(=O)[O-])=C(c3ccc(C[n+]4cccc5ccccc54)cc3)C[C@H]12 | 0.07 | 24.3 | 6.1 | 8.6 | 1.2 | 0.07 | 13 | 27.9 | 1.5
3 | CC(O)[C@H]1C(=O)N2C(C(=O)O)=C(c3ccc(CN)cc3)C[C@H]12 (some centres undefined) | – | 9.2 | 3.5 | 11 | 3.2 | 0.02 | 6.5 | 5.3 | 1.5
4 | C[C@@H](O)[C@H]1C(=O)N2C(C(=O)[O-])=C(c3ccc(C[n+]4cc(N)cc5ccccc54)cc3)C[C@H]12 | 0.09 | 12.1 | 3.7 | 3.7 | 0.9 | 0.05 | 9.2 | 9.2 | 1.9
5 | C[C@@H](O)[C@H]1C(=O)N2C(C(=O)[O-])=C(c3ccc(C[n+]4ccc(N)cc4)cc3)C[C@H]12 | 0.14 | 24.3 | 7 | 11.3 | 2.3 | 0.2 | 16 | 29.9 | 1.1
6 | C[C@@H](O)[C@H]1C(=O)N2C(C(=O)[O-])=C(c3ccc(C[n+]4ccc5ccccc5c4N)cc3)C[C@H]12 | 0.14 | 9.2 | 2.7 | 2.3 | 0.7 | 0.05 | 3.7 | 3.7 | 1.3
7 | C[C@@H](O)[C@H]1C(=O)N2C(C(=O)[O-])=C(c3ccc(C[N+]4(C)CCCC4)cc3)C[C@H]12 | 0.03 | 13.9 | 3.2 | 7.5 | 2.6 | 0.03 | 8.6 | 26 | 0.9
8 | C[C@@H](O)[C@H]1C(=O)N2C(C(=O)[O-])=C(c3ccc(C[n+]4cccc(C(=O)O)c4)cc3)C[C@H]12 | 0.08 | – | – | – | – | – | – | – | –
9 | C[C@@H](O)[C@H]1C(=O)N2C(C(=O)[O-])=C(c3ccc(C[n+]4ccc5ccccc5c4)cc3)C[C@H]12 | 0.08 | 24.3 | 7.5 | 11.3 | 2 | 0.07 | 17.1 | 36.8 | 1.3
10 | C[C@H](O)[C@H]1C(=O)N2C(C(=O)O)=C(c3ccc(CN)cc3)C[C@H]12 | 0.02 | – | – | – | – | – | – | – | –
11 | C[C@@H](O)[C@H]1C(=O)N2C(C(=O)O)=C(c3ccc(CN4CCCC4)cc3)C[C@H]12 | 0.04 | 12.1 | 2.8 | 5.7 | 2.1 | 0.07 | 8 | 9.8 | 0.6
12 | C[C@@H](O)[C@H]1C(=O)N2C(C(=O)[O-])=C(c3ccc(C[n+]4ccc(N5CCCC5)cc4)cc3)C[C@H]12 | 0.33 | 14.9 | 3.5 | 3 | 0.8 | 0.04 | 7.5 | 7.5 | 0.6
13 | C[C@@H](O)[C@H]1C(=O)N2C(C(=O)[O-])=C(c3ccc(C[n+]4ccccc4)cc3)C[C@H]12 | 0.07 | 13 | 3.5 | 7 | 4.3 | 0.1 | 9.8 | 9.8 | 1.3
14 | C[C@@H](O)[C@H]1C(=O)N2C(C(=O)[O-])=C(c3ccc(C[n+]4ccc(N5CCCCC5)cc4)cc3)C[C@H]12 | 0.11 | 5.7 | 2.8 | 2.5 | 0.5 | 0.05 | 4 | 2.8 | 1.1
15 | C[C@@H](O)[C@H]1C(=O)N2C(C(=O)[O-])=C(c3ccc(C[N+]4(C)CCOCC4)cc3)C[C@H]12 | 0.02 | 10.6 | 2 | 5.7 | 2.3 | 0.02 | 6.1 | 7.5 | 0.8
16 | C[C@@H](O)[C@H]1C(=O)N2C(C(=O)[O-])=C(c3ccc(C[n+]4ccccc4N)cc3)C[C@H]12 | 0.11 | 21.1 | 2.8 | 6.1 | 2.6 | 0.08 | 8 | 11.3 | 1.3
17 | C[C@@H](O)[C@H]1C(=O)N2C(C(=O)[O-])=C(c3ccc(C[n+]4ccc(N5CCSCC5)cc4)cc3)C[C@H]12 | 0.09 | 4.9 | 5.3 | 4.6 | 1.1 | 0.04 | 7 | 4.9 | 1.2
18 | C[C@@H](O)[C@H]1C(=O)N2C(C(=O)[O-])=C(c3ccc(C[N+]4(C)CCCCC4)cc3)C[C@H]12 | 0.03 | 14.9 | 5.3 | 8 | 1.9 | 0.03 | 9.8 | 11.3 | 0.8
19 | C[C@@H](O)[C@H]1C(=O)N2C(C(=O)O)=C(c3ccc(CN4CCSCC4)cc3)C[C@H]12 | 0.13 | 9.2 | 2.3 | 3.2 | 1.3 | 0.03 | 7 | 7.5 | 0.9
20 | C[C@@H](O)[C@H]1C(=O)N2C(C(=O)O)=C(c3ccc(CN4CCCCC4)cc3)C[C@H]12 | 0.03 | 6.1 | 2.5 | 4 | 1.4 | 0.05 | 8.6 | 5.7 | 0.6
21 | C[C@@H](O)[C@H]1C(=O)N2C(C(=O)[O-])=C(c3ccc(C[n+]4cccc(C#N)c4)cc3)C[C@H]12 | 0.06 | 10.6 | 4 | 9.8 | 2.1 | 0.1 | 4.6 | 11.3 | 0.9
22 | C[C@@H](O)[C@H]1C(=O)N2C(C(=O)[O-])=C(c3ccc(C[n+]4cccc(C(F)(F)F)c4)cc3)C[C@H]12 | 0.04 | 8 | 3 | 5.7 | 2.8 | 0.05 | 3.7 | 13 | 1.1
23 | C[C@@H](O)[C@H]1C(=O)N2C(C(=O)[O-])=C(c3ccc(C[n+]4cccc(N)c4)cc3)C[C@H]12 | 0.09 | 17.1 | 7.5 | 11.3 | 4.3 | 0.1 | 14.9 | 22.6 | 2.3
24 | C[C@@H](O)[C@H]1C(=O)N2C(C(=O)[O-])=C(c3ccc(C[n+]4ccc(N5CCOCC5)cc4)cc3)C[C@H]12 | 0.06 | 4.6 | 4 | 9.8 | 2.1 | 0.1 | 4.6 | 11.3 | 0.5
